Experimental data from publication doi:10.1101/2023.04.18.537371v1 (bioRxiv, 2023).
Like-named read-outs stand apart in the source and are kept apart here. Peptide text beside a SMILES is read from it.

Key:
[1] = Plasma stability; assay type: in vitro ADME, beagle dog
[2] = tested on: cynomolgus monkey hepatocytes; assay: Hepatocyte stability; assay type: in vitro ADME; conditions: 1.00 μM
[3] = target: T1, CYP1A2 (Homo sapiens, UniProt P05177); assay: biochemical; assay type: in vitro ADME
T1 sequence (P05177 1-516): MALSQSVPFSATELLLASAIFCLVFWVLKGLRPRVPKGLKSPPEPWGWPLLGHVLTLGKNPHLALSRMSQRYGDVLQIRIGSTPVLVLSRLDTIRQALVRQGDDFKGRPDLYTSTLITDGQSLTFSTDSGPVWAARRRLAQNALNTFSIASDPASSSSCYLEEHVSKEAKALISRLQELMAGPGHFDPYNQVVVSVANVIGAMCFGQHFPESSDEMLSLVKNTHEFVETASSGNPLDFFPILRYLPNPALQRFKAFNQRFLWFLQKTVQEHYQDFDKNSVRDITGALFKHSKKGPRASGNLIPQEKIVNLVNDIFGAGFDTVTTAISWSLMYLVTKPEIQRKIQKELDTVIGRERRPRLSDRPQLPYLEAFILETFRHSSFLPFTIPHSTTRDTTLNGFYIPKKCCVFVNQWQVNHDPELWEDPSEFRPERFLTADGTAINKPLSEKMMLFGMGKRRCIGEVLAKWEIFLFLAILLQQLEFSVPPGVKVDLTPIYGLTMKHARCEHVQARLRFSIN

[4] = target: T2, CYP2B6 (Homo sapiens, UniProt P20813); assay: biochemical; assay type: in vitro ADME
T2 sequence (P20813 1-491): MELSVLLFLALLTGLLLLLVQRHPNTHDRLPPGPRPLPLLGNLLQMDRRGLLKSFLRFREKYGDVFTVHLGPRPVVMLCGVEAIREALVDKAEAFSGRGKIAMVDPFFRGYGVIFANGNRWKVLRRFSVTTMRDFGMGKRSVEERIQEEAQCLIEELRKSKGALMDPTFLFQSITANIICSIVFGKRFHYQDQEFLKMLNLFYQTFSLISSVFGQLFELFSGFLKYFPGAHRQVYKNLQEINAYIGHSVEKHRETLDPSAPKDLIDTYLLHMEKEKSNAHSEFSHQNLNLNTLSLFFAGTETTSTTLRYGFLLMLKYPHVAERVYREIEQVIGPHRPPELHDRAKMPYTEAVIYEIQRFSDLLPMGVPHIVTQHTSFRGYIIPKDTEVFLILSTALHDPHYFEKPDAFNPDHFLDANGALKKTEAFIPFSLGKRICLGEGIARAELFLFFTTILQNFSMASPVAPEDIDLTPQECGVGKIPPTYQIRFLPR

[5] = target: T1, CYP1A2; assay: biochemical; assay type: in vitro ADME; remark: listed apart in the source
[6] = target: CYP2C9 (Homo sapiens, UniProt P11712); assay: CYP time-dependent inhibition assay; assay type: in vitro ADME
[7] = target: CYP2C19 (Homo sapiens, UniProt P33261); assay: CYP time-dependent inhibition assay; assay type: in vitro ADME
[8] = tested on: CYP3A; assay: CYP time-dependent inhibition assay; assay type: in vitro ADME, human
[9] = tested on: CYP3A4; assay: CYP induction assay in human hepatocytes; assay type: in vitro ADME; conditions: cryopreserved human hepatocytes, three donors, 0.100 to 15.0 μM, 48 h, 37°C
[10] = tested on: human hepatocytes; assay: Concentration change of FC-12738 in the CYP induction assay; assay type: in vitro ADME; conditions: 24 hours, 37°C
[11] = target: OAT3 (Homo sapiens, UniProt Q8TCC7); assay: Transporter inhibition in HEK293 cells; assay type: in vitro ADME
[12] = target: OCT2 (Homo sapiens, UniProt O15244); assay: Transporter inhibition in HEK293 cells; assay type: in vitro ADME
[13] = Plasma and brain levels in male CD-1 mice after a single IP dose; assay type: in vivo, CD-1 mouse; conditions: for Tissue Homogenate Conc / Plasma Conc: male CD-1 mice, IP 10 mg/kg single
[14] = cutoff IC50 shift >= 1.5-fold, 30 min pre-incubation ± NADPH
[15] = male, CD-1, mouse, brain homogenate, ip, 10 mg/kg
[16] = male, CD-1, mouse, brain, ip, 10 mg/kg
[17] = male, CD-1, mouse, plasma, ip, 10 mg/kg

Sequence of CYP2C19 (P33261 whole entry): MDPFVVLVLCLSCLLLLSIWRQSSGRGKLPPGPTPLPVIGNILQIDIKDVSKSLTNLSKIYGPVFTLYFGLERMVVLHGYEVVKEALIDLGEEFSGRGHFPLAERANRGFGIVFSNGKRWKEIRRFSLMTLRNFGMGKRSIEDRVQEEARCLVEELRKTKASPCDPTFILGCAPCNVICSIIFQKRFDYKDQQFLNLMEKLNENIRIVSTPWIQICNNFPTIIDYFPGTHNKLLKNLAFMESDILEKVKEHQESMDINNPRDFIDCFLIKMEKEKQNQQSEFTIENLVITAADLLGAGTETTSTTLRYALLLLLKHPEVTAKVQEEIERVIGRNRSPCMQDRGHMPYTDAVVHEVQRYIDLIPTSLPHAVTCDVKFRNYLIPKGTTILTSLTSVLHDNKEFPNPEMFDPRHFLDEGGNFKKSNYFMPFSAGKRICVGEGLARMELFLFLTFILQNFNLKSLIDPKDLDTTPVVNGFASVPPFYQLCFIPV
Sequence of CYP2C9 (P11712 whole entry): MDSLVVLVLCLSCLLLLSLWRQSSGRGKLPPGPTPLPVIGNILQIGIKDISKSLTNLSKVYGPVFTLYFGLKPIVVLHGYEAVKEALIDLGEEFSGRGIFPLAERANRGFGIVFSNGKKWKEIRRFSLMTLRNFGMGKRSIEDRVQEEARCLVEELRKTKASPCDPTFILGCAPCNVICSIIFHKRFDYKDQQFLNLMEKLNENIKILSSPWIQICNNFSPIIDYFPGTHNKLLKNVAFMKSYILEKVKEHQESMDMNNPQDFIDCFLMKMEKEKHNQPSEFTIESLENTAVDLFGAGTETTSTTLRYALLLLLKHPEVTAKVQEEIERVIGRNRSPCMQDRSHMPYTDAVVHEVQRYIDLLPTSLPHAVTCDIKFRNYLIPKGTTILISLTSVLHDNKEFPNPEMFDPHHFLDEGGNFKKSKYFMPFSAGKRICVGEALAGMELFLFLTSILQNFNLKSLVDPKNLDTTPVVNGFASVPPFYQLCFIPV
Sequence of OCT2 (O15244 whole entry): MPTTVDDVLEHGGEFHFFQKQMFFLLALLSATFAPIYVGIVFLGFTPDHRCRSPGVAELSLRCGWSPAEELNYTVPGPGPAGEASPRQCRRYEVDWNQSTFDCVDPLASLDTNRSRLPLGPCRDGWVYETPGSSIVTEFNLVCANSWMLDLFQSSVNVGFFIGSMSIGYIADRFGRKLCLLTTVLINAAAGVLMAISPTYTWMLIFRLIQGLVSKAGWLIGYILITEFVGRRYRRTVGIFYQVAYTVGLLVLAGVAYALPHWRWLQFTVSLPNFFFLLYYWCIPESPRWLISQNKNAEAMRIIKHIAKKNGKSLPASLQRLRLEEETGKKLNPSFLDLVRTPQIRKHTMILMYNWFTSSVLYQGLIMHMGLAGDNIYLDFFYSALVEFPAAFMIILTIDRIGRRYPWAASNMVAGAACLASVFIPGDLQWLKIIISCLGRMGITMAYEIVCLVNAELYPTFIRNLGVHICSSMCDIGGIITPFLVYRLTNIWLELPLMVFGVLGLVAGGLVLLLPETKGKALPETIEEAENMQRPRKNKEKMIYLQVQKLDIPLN
Sequence of OAT3 (Q8TCC7 whole entry): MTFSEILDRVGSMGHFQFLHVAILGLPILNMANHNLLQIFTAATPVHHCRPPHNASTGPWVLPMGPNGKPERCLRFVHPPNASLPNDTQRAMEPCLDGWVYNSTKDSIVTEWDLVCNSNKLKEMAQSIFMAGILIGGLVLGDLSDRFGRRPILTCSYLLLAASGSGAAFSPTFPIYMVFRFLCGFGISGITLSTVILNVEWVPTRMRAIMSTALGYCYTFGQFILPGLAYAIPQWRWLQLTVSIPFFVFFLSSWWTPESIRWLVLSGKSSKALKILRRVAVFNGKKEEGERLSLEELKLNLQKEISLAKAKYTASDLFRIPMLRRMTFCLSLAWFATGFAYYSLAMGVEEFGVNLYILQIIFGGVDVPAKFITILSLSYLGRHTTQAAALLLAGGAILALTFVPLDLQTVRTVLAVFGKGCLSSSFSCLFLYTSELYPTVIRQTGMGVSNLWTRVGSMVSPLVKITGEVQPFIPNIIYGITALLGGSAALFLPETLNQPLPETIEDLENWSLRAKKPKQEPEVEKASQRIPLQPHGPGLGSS

Work on `CC(C)[C@@H](NC(=O)[C@H](N)Cc1ccc(O)cc1)C(=O)N[C@H](CC(=O)O)C(=O)N[C@H](CCCCN)C(=O)N[C@H](CCCNC(=N)N)C(=O)O` [FC-12738, (D-Tyr)-(D-Val)-(D-Asp)-(D-Lys)-(D-Arg)] (HELM PEPTIDE1{[dY].[dV].[dD].[dK].[dR]}$$$$V2.0) yielded a half-life ([1]; beagle dog plasma, 2.00 μM, 37.0 °C, up to 120 min) of over 372.7 min, a remaining at 10 min, 2 μM ([1]; beagle, dog, plasma) of 106% and a remaining at 0.5 h, 2 μM ([1]; beagle, dog, plasma) of 105%. For the same molecule, the remaining at 1 h, 2 μM ([1]; beagle, dog, plasma) was 106%, the remaining at 2 h, 2 μM ([1]; beagle, dog, plasma) was 101% and the “intrinsic clearance CLint(hep)” value ([2]; cryopreserved cynomolgus monkey hepatocytes, 37.0°C, 120 min) was under 1.9 μL/min/10^6 cells. For the same molecule, the half-life ([2]; cryopreserved cynomolgus monkey hepatocytes, 37.0°C, 120 min, LC-MS/MS) was over 372.7 min, the “hepatic clearance CLint(liver)” value ([2]; scaled from cynomolgus monkey hepatocytes) was under 6.7 mL/min/kg and the IC50 [3] was over 100 µM. The IC50 [4] was over 100 µM, the IC50 [5] was over 100 µM and the “Time-dependent inhibition of CYP1A2” value [5, 14] was “no time-dependent inhibition”. For the same molecule, the IC50 [6] was over 100 µM, the “Time-dependent inhibition of CYP2C9” value [6, 14] was “no time-dependent inhibition” and the IC50 [7] was over 100 µM. The “Time-dependent inhibition of CYP2C19” value [7, 14] was “no time-dependent inhibition”, the IC50 at 30 min ([8]; human, pooled human liver microsomes) was over 100 µM and the “Time-dependent inhibition of CYP3A” value ([8]; midazolam and testosterone as substrates, cutoff IC50 shift >= 1.5-fold) was “no time-dependent inhibition”. The “Induction of CYP3A4 (enzyme activity and gene expression)” value [9] was “not considered as an inducer”, the “% remaining” value ([10]; human hepatocytes Donor 1, 10.0 μM) was 69.1% and the “% remaining” value ([10]; human hepatocytes Donor 2, 15.0 μM) was 89.3%. The “% remaining” value ([10]; human hepatocytes Donor 3, 10.0 μM) was 61.0%, the IC50 [11] was over 100 µM and the IC50 [12] was over 100 µM. The “Tissue Homogenate Conc” value ([13]; brain homogenate, 0.5 h, animal 2) was 17.6 ng/mL, the “Tissue Homogenate Conc” value ([13]; brain homogenate, 0.5 h, animal 3) was 14.1 ng/mL and the “Tissue Homogenate Conc” value ([13]; brain homogenate, 1 h, animal 1) was 8.28 ng/mL. The “Tissue Homogenate Conc” value ([13]; brain homogenate, 1 h, animal 2) was 10.1 ng/mL, the “Tissue Homogenate Conc” value ([13]; brain homogenate, 1 h, animal 3) was 8.41 ng/mL and the “Tissue Homogenate Conc” value ([13]; brain homogenate, 2 h, animal 1) was 6.96 ng/mL. For the same molecule, the “Tissue Homogenate Conc” value ([13]; brain homogenate, 2 h, animal 2) was 5.73 ng/mL, the “Tissue Homogenate Conc” value ([13]; brain homogenate, 2 h, animal 3) was 7.47 ng/mL and the “Tissue Homogenate Conc” value ([13]; brain homogenate, 4 h, animal 1) was 1.76 ng/mL. The “Tissue Homogenate Conc” value ([13]; brain homogenate, 4 h, animal 2) was 1.22 ng/mL, the “Tissue Homogenate Conc” value ([13]; brain homogenate, 4 h, animal 3) was 1.06 ng/mL and the level at 0.5 h [13, 15] was 16.4 ng/mL. The level at 1 h [13, 15] was 8.93 ng/mL, the level at 2 h [13, 15] was 6.72 ng/mL and the level at 4 h [13, 15] was 1.35 ng/mL. The tissue level at time at 0.5 h [13, 16] was 65.5 ng/g, the tissue level at time at 1 h [13, 16] was 35.7 ng/g and the tissue level at time at 2 h [13, 16] was 26.9 ng/g. It also gave a tissue level at time at 4 h [13, 16] of 5.39 ng/g, a level at 0.5 h [13, 17] of 2090 ng/mL and a level at 1 h [13, 17] of 1210 ng/mL. It also gave a level at 2 h [13, 17] of 627 ng/mL, a level at 4 h [13, 17] of 84.1 ng/mL and a level at 8 h [13, 17] of 16.7 ng/mL. For the same molecule, the “Plasma Conc” value ([13]; plasma, 0.5 h, animal 1, LC-MS/MS) was 2230 ng/mL, the “Plasma Conc” value ([13]; plasma, 0.5 h, animal 2) was 1790 ng/mL and the “Plasma Conc” value ([13]; plasma, 0.5 h, animal 3) was 2260 ng/mL. For the same molecule, the “Plasma Conc” value ([13]; plasma, 1 h, animal 1) was 885 ng/mL, the “Plasma Conc” value ([13]; plasma, 1 h, animal 2) was 1320 ng/mL and the “Plasma Conc” value ([13]; plasma, 1 h, animal 3) was 1420 ng/mL. For the same molecule, the “Plasma Conc” value ([13]; plasma, 2 h, animal 1) was 543 ng/mL, the “Plasma Conc” value ([13]; plasma, 2 h, animal 2) was 592 ng/mL and the “Plasma Conc” value ([13]; plasma, 2 h, animal 3) was 745 ng/mL. For the same molecule, the “Plasma Conc” value ([13]; plasma, 4 h, animal 1) was 97.9 ng/mL, the “Plasma Conc” value ([13]; plasma, 4 h, animal 2) was 74.6 ng/mL and the “Plasma Conc” value ([13]; plasma, 4 h, animal 3) was 79.8 ng/mL. The “Plasma Conc” value ([13]; plasma, 8 h, animal 1) was 19.1 ng/mL, the “Plasma Conc” value ([13]; plasma, 8 h, animal 2) was 17.5 ng/mL and the “Plasma Conc” value ([13]; plasma, 8 h, animal 3) was 13.4 ng/mL.
